In PubChem BioAssay AID1963966 (Molecular Pharmacology Branch, DTP, NCI, 2024):

System: 935938-334-R-J1-PDC spheroids with HUVEC/MSC, viability
Experiment: Anticancer human tumor 935938-334-R-J1-PDC patient-derived small intestine adenocarcinoma cell line growth inhibition [PI3K]
Conditions: for IC50: curve of first compound; for viability, T/C: stronger effect = lower value; active = viability on the fitted dose curve at most 10% of control; inactive = the rest
Procedure, shortened: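 Tumor cells grown as multi-cell spheroids with HUVEC endothelial cells and MSC fibroblast-like stroma were treated with targeted agents combined with inavolisib, alpelisib, duvelisib or copanlisib. Doses fell in half-log steps from near clinical Cmax, else from 10 microM. Viability was measured.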
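Also: compound exposure lasted seven days before viability was read.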
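For viability, T/C in this document: percent of vehicle DMSO treated spheroid viability so 100% = untreated.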

CCCS(=O)(=O)Nc1ccc(F)c(C(=O)c2c[nH]c3ncc(-c4ccc(Cl)cc4)cc23)c1F + CC(Nc1ccc2c(c1)OCCn1cc(N3C(=O)OCC3C(F)F)nc1-2)C(N)=O
inactive: viability, T/C (second compound 0.00316 µM, first compound 0.0316 µM) 100% | viability, T/C (second compound 0.00316 µM, first compound 0.1 µM) 101% | viability, T/C (second compound 0.00316 µM, first compound 0.316 µM) 162% | viability, T/C (second compound 0.00316 µM, first compound 1 µM) 103% | viability, T/C (second compound 0.00316 µM, first compound 3.16 µM) 92.6% | viability, T/C (second compound 0.00316 µM, first compound 10 µM) 30.3% | viability, T/C (second compound 0.01 µM, first compound 0.0316 µM) 136% | viability, T/C (second compound 0.01 µM, first compound 0.1 µM) 89.5% | viability, T/C (second compound 0.01 µM, first compound 0.316 µM) 136% | viability, T/C (second compound 0.01 µM, first compound 1 µM) 103% | viability, T/C (second compound 0.01 µM, first compound 3.16 µM) 118% | viability, T/C (second compound 0.01 µM, first compound 10 µM) 28.9% | viability, T/C (second compound 0.0316 µM, first compound 0.0316 µM) 92.3% | viability, T/C (second compound 0.0316 µM, first compound 0.1 µM) 101% | viability, T/C (second compound 0.0316 µM, first compound 0.316 µM) 98.3% | viability, T/C (second compound 0.0316 µM, first compound 1 µM) 110% | viability, T/C (second compound 0.0316 µM, first compound 3.16 µM) 100% | viability, T/C (second compound 0.0316 µM, first compound 10 µM) 28.6% | viability, T/C (second compound 0.1 µM, first compound 0.0316 µM) 93.6% | viability, T/C (second compound 0.1 µM, first compound 0.1 µM) 78.1% | viability, T/C (second compound 0.1 µM, first compound 0.316 µM) 104% | viability, T/C (second compound 0.1 µM, first compound 1 µM) 118% | viability, T/C (second compound 0.1 µM, first compound 3.16 µM) 88.5% | viability, T/C (second compound 0.1 µM, first compound 10 µM) 31.3% | viability, T/C (second compound 0.316 µM, first compound 0.0316 µM) 84.2% | viability, T/C (second compound 0.316 µM, first compound 0.1 µM) 92.4% | viability, T/C (second compound 0.316 µM, first compound 0.316 µM) 84.6% | viability, T/C (second compound 0.316 µM, first compound 1 µM) 102% | viability, T/C (second compound 0.316 µM, first compound 3.16 µM) 78.9% | viability, T/C (second compound 0.316 µM, first compound 10 µM) 24.6% | viability, T/C (second compound 1 µM, first compound 0.0316 µM) 72.5% | viability, T/C (second compound 1 µM, first compound 0.1 µM) 66.9% | viability, T/C (second compound 1 µM, first compound 0.316 µM) 86.5% | viability, T/C (second compound 1 µM, first compound 1 µM) 62.9% | viability, T/C (second compound 1 µM, first compound 3.16 µM) 77% | viability, T/C (second compound 1 µM, first compound 10 µM) 22.9%
6.88 µM: IC50 (second compound 0.1 µM)
7.08 µM: IC50 (second compound 0.0316 µM)
7.58 µM: IC50 (second compound 0.01 µM)
6.91 µM: IC50 (second compound 0.00316 µM)
5.37 µM: IC50 (second compound 1 µM)
5.83 µM: IC50 (second compound 0.316 µM)
